Columns and labels:
[1] = biological target: T1, hα2A receptor (Homo sapiens, UniProt P08913); experiment: Radioligand binding experiment for hα2A receptor ([3H]-raulwolscine); details: membranes of CHO cells expressing human α2A receptor, [3H]raulwolscine 1 nM; for IC50: read-out: hα2A pIC50 (converted)
T1 construct: expressed in transfected cells
T1 sequence (P08913 1-465): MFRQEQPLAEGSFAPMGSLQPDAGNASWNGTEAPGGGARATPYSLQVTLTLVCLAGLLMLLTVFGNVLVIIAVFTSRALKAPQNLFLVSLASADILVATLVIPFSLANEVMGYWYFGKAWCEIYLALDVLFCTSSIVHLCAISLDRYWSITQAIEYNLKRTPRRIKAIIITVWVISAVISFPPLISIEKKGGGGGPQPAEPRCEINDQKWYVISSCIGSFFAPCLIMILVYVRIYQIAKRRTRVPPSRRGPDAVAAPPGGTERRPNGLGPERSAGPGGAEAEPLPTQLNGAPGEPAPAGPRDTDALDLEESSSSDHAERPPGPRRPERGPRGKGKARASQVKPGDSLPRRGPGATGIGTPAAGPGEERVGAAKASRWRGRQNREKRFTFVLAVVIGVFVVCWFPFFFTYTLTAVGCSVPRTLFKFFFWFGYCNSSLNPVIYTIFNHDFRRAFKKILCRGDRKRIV
Protocol: (§1) The interaction of the compounds of Formula (I) with hα2-receptors and h5-HT-transporters was assessed in in vitro radioligand binding experiments. In general, a low concentration of a radioligand with a high binding affinity for a particular receptor or transporter is incubated with a sample of a tissue preparation enriched in a particular receptor or transporter or with a preparation of cells expressing cloned human receptors in a buffered medium. During the incubation, the radioligand binds to the receptor or transporter. When equilibrium of binding is reached, the receptor bound radioactivity is separated from the non-bound radioactivity, and the receptor- or transporter-bound activity is counted. The interaction of the test compounds with the receptor is assessed in competition binding experiments. Various concentrations of the test compound are added to the incubation mixture containing the receptor- or transporter preparation and the radioligand. The test compound in proportion to its binding affinity and its concentration inhibits binding of the radioligand. The radioligand used for hα2A, hα2B and hα2C receptor binding was [^3H]-raulwolscine and for the h5-HT transporter was [^3H]paroxetine.
(§2) CHO cells, stabile transfected with human adrenergic-α2A-, -α2B or α2C receptor cDNA, were cultured in Dulbecco's Modified Eagle's Medium (DMEM)/Nutrient mixture Ham's F12 (ratio 1:1)(Gibco, Gent-Belgium) supplemented with 10% heat inactivated fetal calf serum (Life Technologies, Merelbeke-Belgium) and antibiotics (100 IU/ml penicillin G, 100 μg/ml streptomycin sulphate, 110 μg/ml pyruvic acid and 100 μg/ml L-glutamine). One day before collection, cells were induced with 5 mM sodiumbutyrate. Upon 80–90% of confluence, cells were scraped in phosphate buffered saline without Ca^2+ and Mg^2+ and collected by centrifugation at 1500×g for 10 min. The cells were homogenised in Tris-HCl 50 mM using an Ultraturrax homogenizer and centrifuged for 10 min at 23,500×g. The pellet was washed once by resuspension and rehomogenization and the final pellet was resuspended in Tris-HCl, divided in 1 ml aliquots and stored at −70° C.
(§3) Membranes were thawed and re-homogenized in incubation buffer (glycylglycine 25 mM, pH 8.0). […] Filters were rinsed extensively with ice-cold rinsing buffer (Tris-HCl 50 mM pH 7.4). Filter-bound radioactivity was determined by scintillation counting in a Topcount (Packard, Meriden, Conn.) and results were expressed as counts per minute (cpm). Non-specific binding was determined in the presence of 1 μM oxymetazoline for hα2A- and hα2B receptors and 1 μM spiroxatrine for hα2C receptors.
(§4) Data from assays in the presence of compound were calculated as a percentage of total binding measured in the absence of test compound. Inhibition curves, plotting percent of total binding versus the log value of the concentration of the test compound, were automatically generated, and sigmoidal inhibition curves were fitted using non-linear regression. The pIC50 values of test compounds were derived from individual curves.

[2] = biological target: T2, h5-HT transporter (Homo sapiens, UniProt P31645); experiment: Radioligand binding experiment for 5-HT transporter ([3H]paroxetine, human platelet membranes); details: human platelet membranes, [3H]paroxetine 0.5 nM; for IC50: read-out: 5HTT pIC50 (converted)
T2 construct: Human platelet membranes (Oceanix Biosciences Corporation, Hanover, Md., USA) were thawed; tissue Oceanix Biosciences Corporation, Hanover, Md., USA; host or cells: human platelet membranes
T2 sequence (P31645 whole entry): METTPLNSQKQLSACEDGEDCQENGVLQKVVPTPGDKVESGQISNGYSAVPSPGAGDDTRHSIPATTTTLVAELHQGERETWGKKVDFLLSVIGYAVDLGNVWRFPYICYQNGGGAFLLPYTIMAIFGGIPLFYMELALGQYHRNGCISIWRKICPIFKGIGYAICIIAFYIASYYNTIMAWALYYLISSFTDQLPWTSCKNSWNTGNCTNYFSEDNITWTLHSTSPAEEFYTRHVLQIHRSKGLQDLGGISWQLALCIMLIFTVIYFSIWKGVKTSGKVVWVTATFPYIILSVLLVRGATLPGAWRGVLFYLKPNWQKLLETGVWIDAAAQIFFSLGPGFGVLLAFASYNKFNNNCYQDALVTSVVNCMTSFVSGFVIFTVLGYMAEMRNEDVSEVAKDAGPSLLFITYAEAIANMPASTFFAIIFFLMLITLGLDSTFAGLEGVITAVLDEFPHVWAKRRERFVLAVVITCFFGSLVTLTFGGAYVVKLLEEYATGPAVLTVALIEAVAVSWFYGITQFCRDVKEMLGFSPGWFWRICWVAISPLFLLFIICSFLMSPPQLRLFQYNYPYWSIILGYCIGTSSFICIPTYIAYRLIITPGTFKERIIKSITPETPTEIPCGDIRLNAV
Protocol: as §1
Human platelet membranes (Oceanix Biosciences Corporation, Hanover, Md., USA) were thawed, diluted in buffer (Tris-HCl 50 mM, 120 mM NaCl and 5 mM KCl) and quickly (max 3 s) homogenised with an Ultraturrax homogenizer. […] Filters were rinsed extensively with ice-cold buffer and radioactivity on the filters was counted in a Topcount liquid scintillation counter (Packard, Meriden, Conn.). Data were expressed as cpm. Imipramine (at 1 μM final concentration) was used to determine the non-specific binding.
as §4

[3] = biological target: T3, hα2B receptor (Homo sapiens, UniProt P18089); experiment: Radioligand binding experiment for hα2B receptor ([3H]-raulwolscine); details: membranes of CHO cells expressing human α2B receptor, [3H]raulwolscine 1 nM; for IC50: read-out: hα2B pIC50 (converted)
T3 construct: expressed in transfected cells
T3 sequence (P18089 1-450): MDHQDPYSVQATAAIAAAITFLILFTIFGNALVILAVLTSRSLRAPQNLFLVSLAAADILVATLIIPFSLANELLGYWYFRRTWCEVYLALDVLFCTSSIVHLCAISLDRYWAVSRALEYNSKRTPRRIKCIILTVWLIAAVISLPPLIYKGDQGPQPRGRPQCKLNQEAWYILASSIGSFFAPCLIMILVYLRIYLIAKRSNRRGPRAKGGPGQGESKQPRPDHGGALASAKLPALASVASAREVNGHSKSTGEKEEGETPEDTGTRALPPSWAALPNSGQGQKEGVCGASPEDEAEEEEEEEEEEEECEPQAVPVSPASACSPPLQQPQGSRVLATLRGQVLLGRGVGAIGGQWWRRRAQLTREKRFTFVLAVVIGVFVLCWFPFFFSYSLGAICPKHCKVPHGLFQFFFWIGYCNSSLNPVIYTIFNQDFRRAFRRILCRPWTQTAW
Protocol: as §1, §2, §3, §4

[4] = biological target: T4, hα2C receptor (Homo sapiens, UniProt P18825); experiment: Radioligand binding experiment for hα2C receptor ([3H]-raulwolscine); details: membranes of CHO cells expressing human α2C receptor, [3H]raulwolscine 1 nM; for IC50: read-out: hα2C pIC50 (converted)
T4 construct: expressed in transfected cells
T4 sequence (P18825 1-462): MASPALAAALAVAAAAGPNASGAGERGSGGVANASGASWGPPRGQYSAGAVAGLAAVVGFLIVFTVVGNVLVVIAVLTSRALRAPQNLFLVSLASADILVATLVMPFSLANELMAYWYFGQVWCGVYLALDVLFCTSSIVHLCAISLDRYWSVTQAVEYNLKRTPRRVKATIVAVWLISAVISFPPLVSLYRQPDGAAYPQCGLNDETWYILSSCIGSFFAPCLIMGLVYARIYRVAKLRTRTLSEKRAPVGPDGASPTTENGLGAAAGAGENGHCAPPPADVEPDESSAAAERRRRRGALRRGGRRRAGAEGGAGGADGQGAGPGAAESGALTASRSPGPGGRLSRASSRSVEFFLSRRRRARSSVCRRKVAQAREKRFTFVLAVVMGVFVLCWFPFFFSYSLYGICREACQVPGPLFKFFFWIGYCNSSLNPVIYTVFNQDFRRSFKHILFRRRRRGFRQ
Protocol: as §1, §2, §3, §4

Compound	IC50 [1]	IC50 [2]	IC50 [3]	IC50 [4]	hα2A pIC50 [1]	5HTT pIC50 [2]	hα2B pIC50 [3]	hα2C pIC50 [4]
COc1cc2c(cc1OC)C1=NOC(CN3CCN(Cc4ccc5cc(C)ccc5c4)CC3)C1CO2 (stereo not shown) [Compound 72]	46.8 nM	6.92 nM	178 nM	66.1 nM	–	–	–	–
COc1ccc2c(c1)CCC1C2=NOC1CN1CCN(CC=Cc2ccccc2)CC1 (stereo not shown) [Comp 220]	7.59 nM	66.1 nM	14.1 nM	43.7 nM	–	–	–	–
COc1cc2c(cc1OC)C1=NOC(CN3CCN(CC(C)Nc4ccccc4)CC3)C1CO2 (stereo not shown) [Compound 26]	525 nM	676 nM	102 nM	245 nM	–	–	–	–
COc1cc2c(cc1OC(C)=O)C1=NOC(CN3CCN(C/C(C)=C/c4ccccc4)CC3)C1CO2 (single isomer, unassigned) [Compound 333]	4.79 nM	30.2 nM	3.8 nM	4.68 nM	–	–	–	–
CN1CC2C(=NOC2CN2CCN(Cc3ccc4ccccc4c3)CC2)c2ccccc21 (stereo not shown) [Compound 266]	–	–	–	–	7.84	8.88	7.80	7.45
COc1cc2c(cc1OC)C1=NOC(CN3CCN(Cc4ccsc4)CC3)C1CO2 (stereo not shown) [Compound 300]	347 nM	724 nM	933 nM	631 nM	–	–	–	–
COc1cc2c(cc1OC)C1=NOC(CN3CCN(Cc4ccoc4)CC3)C1CO2 (stereo not shown) [Compound 296]	759 nM	871 nM	407 nM	724 nM	–	–	–	–
COc1ccc2c(c1)OCC1C2=NOC1CN1CCN(Cc2ccc3ccccc3c2)CC1 (stereo not shown) [Compound 265]	3.47 nM	14.8 nM	20.9 nM	27.5 nM	–	–	–	–
CC(=O)Oc1ccc2c(c1)OCC1C2=NOC1CN1CCN(Cc2ccc3ccccc3c2)CC1 (stereo not shown) [Compound 273]	7.76 nM	13.2 nM	20.9 nM	30.9 nM	–	–	–	–
COc1cc2c(cc1OC)C1=NOC(CN3CCN(Cc4ccccc4)CC3)C1CO2 (stereo not shown) [Compound 31]	794 nM	501 nM	631 nM	1000 nM	–	–	–	–
COc1cc2c(cc1OC)C1=NOC(CN3CCN(CC=Cc4ccc(F)cc4)CC3)C1CO2 (stereo not shown) [Compound 43]	102 nM	15.8 nM	64.6 nM	138 nM	–	–	–	–
C(=Cc1ccccc1)CN1CCN(CC2ON=C3c4cc5c(cc4OCC32)OCC5)CC1 (racemic) [Compound 279]	–	–	–	–	8.45	7.45	8.03	8.24
C(=Cc1ccccc1)CN1CCN(CC2ON=C3c4ccccc4CCC32)CC1 (stereo not shown) [Comp 218]	182 nM	457 nM	132 nM	1260 nM	–	–	–	–
Oc1ccc2c(c1)OCC1C2=NOC1CN1CCN(Cc2ccc3ccccc3c2)CC1 (stereo not shown) [Compound 268]	1 nM	5.75 nM	5.5 nM	8.91 nM	–	–	–	–
COc1cc2c(cc1OC)C1=NOC(CN3CCN(CCCc4ccccc4)CC3)C1CO2 (stereo not shown) [Compound 32]	12.6 nM	17 nM	14.5 nM	11.5 nM	–	–	–	–
COc1cc2c(cc1OC)C1=NOC(CN3CCN(CC4=Cc5ccccc5CC4)CC3)C1CO2 (stereo not shown) [Compound 21]	1.62 nM	1.2 nM	18.6 nM	1.05 nM	–	–	–	–
COc1cc2c(cc1OC)C1=NOC(CN3CCN(CC(Br)=Cc4ccccc4)CC3)C1CO2 (stereo not shown) [Compound 143]	77.6 nM	24 nM	25.1 nM	23.4 nM	–	–	–	–
CSc1cc2c(cc1F)C1=NOC(CN3CCN(CC(C)=Cc4ccccc4)CC3)C1CO2 (stereo not shown) [Compound 244]	3.8 nM	126 nM	7.41 nM	1.35 nM	–	–	–	–
COc1cc2c(cc1OC)C1=NOC(CN3CCN(CC=Cc4ccc5ccccc5c4)CC3)C1CO2 (stereo not shown) [Compound 181]	282 nM	23.4 nM	776 nM	324 nM	–	–	–	–
COc1cc2c(cc1F)C1=NOC(CN3CCN(CC(C)=Cc4ccccc4)CC3)C1CO2 (stereo not shown) [Compound 241]	16.6 nM	–	7.41 nM	6.31 nM	–	–	–	–

— patent publication US7169786B2, “Isoxazoline derivatives as anti-depressants” (priority 2001, dated 2007)
